In ChEMBL document CHEMBL2057175, “New structure-activity relationships of A- and D-ring modified steroidal aromatase inhibitors: design, synthesis, and biochemical evaluation” (J Med Chem, 2012):

Assays:
Aromatase [1] = target: T1, Aromatase (Homo sapiens, UniProt P11511); details: 0.25 h, read-out: INH
T1 sequence (P11511 whole entry): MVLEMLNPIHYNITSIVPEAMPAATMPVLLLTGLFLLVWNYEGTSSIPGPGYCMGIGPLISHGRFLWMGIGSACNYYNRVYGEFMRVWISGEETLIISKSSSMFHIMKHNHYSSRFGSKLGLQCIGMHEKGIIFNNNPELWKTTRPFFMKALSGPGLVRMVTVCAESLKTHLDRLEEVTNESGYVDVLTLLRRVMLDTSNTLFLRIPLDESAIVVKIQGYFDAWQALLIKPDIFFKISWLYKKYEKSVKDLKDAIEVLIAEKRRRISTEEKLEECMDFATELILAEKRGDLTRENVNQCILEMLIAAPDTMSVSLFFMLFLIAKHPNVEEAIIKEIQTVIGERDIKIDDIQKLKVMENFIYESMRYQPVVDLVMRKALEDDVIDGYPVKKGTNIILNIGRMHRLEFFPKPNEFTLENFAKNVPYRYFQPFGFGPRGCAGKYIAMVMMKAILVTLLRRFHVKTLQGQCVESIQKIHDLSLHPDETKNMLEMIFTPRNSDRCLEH
Description: Inhibition of aromatase in human placental microsomes using [1beta-3H]androstenedione as substrate at 2 uM after 15 mins by liquid scintillation counting

Aromatase [2] = target: T1, Aromatase; test: Competitive inhibition of aromatase in human microsomes using [1beta-3H]androstenedione as substrate after 5 mins by Lineweaver-Burk plot analysis; parameters: species or system Microsome
Aromatase [3] = target: T1, Aromatase; test: Inhibition of aromatase in human microsomes using [1beta-3H]androstenedione as substrate after 5 mins by Dixon plot analysis; parameters: species or system Microsome; details: read-out: Ki(app)
Aromatase [4] = target: T1, Aromatase; test: Inhibition of aromatase in human placental microsomes using [1beta-3H]androstenedione as substrate after 15 mins by liquid scintillation counting; parameters: species or system Placenta

Row | Compound | inhibition at 2 µM (Aromatase [1]) | inhibition (INH) (Aromatase [2]) | Ki (Aromatase [3]) | IC50 (Aromatase [4])
1 | C[C@]12CC[C@H](O)C=C1CC[C@@H]1[C@@H]2CC[C@]2(C)C(=O)CC[C@@H]12 | 93.1% | Active | – | –
2 | C[C@]12CCC=C[C@@H]1CC[C@@H]1[C@@H]2CC[C@]2(C)C(=O)CC[C@@H]12 | – | Active | 50 nM | –
3 | C[C@]12CC[C@H]3O[C@H]3[C@@H]1CC[C@@H]1[C@@H]2CC[C@]2(C)C(=O)CC[C@@H]12 | – | Active | – | –
4 | C[C@]12CCCC=C1CC[C@@H]1[C@@H]2CC[C@]2(C)C(=O)CC[C@@H]12 | 97.8% | – | – | –
5 | C[C@]12CC[C@@H](O)C=C1CC[C@@H]1[C@@H]2CC[C@]2(C)C(=O)CC[C@@H]12 | 60.8% | – | – | –
6 | CC(=O)O[C@H]1CC[C@H]2[C@@H]3CCC4=C[C@@H](O)CC[C@]4(C)[C@H]3CC[C@]12C | 4.6% | – | – | –
7 | C[C@]12CC[C@H]3[C@@H](CC[C@@]45O[C@@H]4CCC[C@]35C)[C@@H]1CCC2=O | 84.6% | Active | 86 nM | 970 nM
8 | C[C@]12CC=CC[C@@H]1CC[C@@H]1[C@@H]2CC[C@]2(C)C(=O)CC[C@@H]12 | 72% | Active | 9500 nM | 1730 nM
9 | C[C@]12C[C@H]3O[C@H]3C[C@@H]1CC[C@@H]1[C@@H]2CC[C@]2(C)C(=O)CC[C@@H]12 | 70.7% | – | – | 1150 nM
10 | C[C@]12C=CCC[C@@H]1CC[C@@H]1[C@@H]2CC[C@]2(C)C(=O)CC[C@@H]12 | 56% | – | – | –
11 | C[C@]12[C@@H](CC[C@@H]3[C@@H]1CC[C@]1(C)C(=O)CC[C@@H]31)CC[C@@H]1O[C@@H]12 | 40% | – | – | –
12 | CC(=O)OC1=CCC[C@@]2(C)[C@H]1CC[C@@H]1[C@@H]2CC[C@]2(C)C(=O)CC[C@@H]12 | 33.9% | – | – | –
13 | CC(=O)Oc1ccccc1C(=O)OC1=C2CC[C@@H]3[C@H](CC[C@]4(C)C(=O)CC[C@@H]34)[C@@]2(C)CCC1=O | 68.7% | – | – | –
14 | C[C@]12CCC=C[C@@H]1CC[C@@H]1[C@@H]2CC[C@]2(C)C(=S)CC[C@@H]12 | 41.5% | – | – | –
